Experiments:
[1] = molecular target: T1, PI3K-α (PIK3CA) H1047R mutant, p110α/p85α complex (Homo sapiens, UniProt P42336, H1047R); experiment: PI3K-alpha kinase (PIK3CA) biochemical activity, ADP-Glo, H1047R mutant
T1 construct: Recombinant, catalytically active human full length PIK3KA Wild-type and H1047R mutant; 6×His (N); purchased EMD Millipore Sigma 14-792M
Text: (§1) PI3K-Alpha Kinase (PIK3CA) Activity, Wild-Type and H1047R Mutant and Determining IC50 Values for Inhibitors
(§2) Recombinant, catalytically active human full length PIK3KA Wild-type and H1047R mutant were purchased as 1:1 complex of N-terminal 6×his tagged p110α (catalytic) and untagged p85α (regulatory subunit) from EMD Millipore Sigma (cat. no. 14-602M and 14-792M, respectively). PIP2diC8 (Avanti Polar Lipids Inc., cat. no. 850185) or Soy PI (Avanti Polar Lipids Inc., cat. No. 840044P) was used as lipid substrate. PIP2diC8 or PI lyophilized powder was dissolved in milliQ water to a concentration of 1 mM just before use. 10 mM stock compounds in DMSO were serially diluted 1:3 to generate a 10-point curve and plated using an acoustic liquid handler system (Echo 550 series instrument, Labcyte). A 10× intermediate compound plate (200 uM starting compound concentration and 10% DMSO) was prepared before starting the reaction. A typical reaction mixture (50 uL) comprised 40 mM HEPES buffer, pH 7.4, 25 mM MgCl2, 0.01% v/v triton-X-100, 1% v/v DMSO, 20 mM NaCl, 1-5 nM WT or H1047R PI3K protein, 20 uM ATP, and 50 uM PIP2diC8 or Soy PI. 1% DMSO buffer alone without test compound was employed as MAX control (full activity in the absence of any inhibitor), and no enzyme control was used to determine the level of background Adenosine 5′-diphosphate (ADP) (MIN control). First, Wild-type (WT) and H1047R mutant protein in kinase buffer with all components except ATP were incubated with or without compound at 27° C. for 1 h. After the pre-incubation, the reaction was initiated by the addition of 20 uL of 50 uM ATP (20 uM final concentration). The reaction was allowed to proceed until about 10% conversion of ATP (2 uM ADP) at 27° C. After that time, 5 uL of reaction was mixed with 5 uL of ADP-Kinase Glo Reagent (ADP-Glo Kinase assay kit, Promega cat. no. V9102) supplemented with MgCl2 10 mM to stop the reaction and deplete the remaining ATP for 40 min at room temperature. Then, 10 uL of Kinase Detection Reagent (ADP-Glo Kinase assay kit, Promega cat. no. V9102) was added to simultaneously convert ADP to ATP and allow the newly synthesized ATP to be measured using a luciferase/luciferin reaction. After 30 min at room temperature the light generated was measured using a luminometer (EnVision plate reader, Perkin Elmer). Process data through Genedata-Screener tool. Relative IC50 values are determined using luminescence units by calculating percent inhibition with respect to on-plate “MIN” and “MAX” controls. Data was analyzed using a 4-parameter nonlinear logistic equation (four-parameter logistic concentration-response curve): Y=bot+[(top−bot)/1+(x/IC50)slope] where Y=% inhibition, X=concentration yielding y % inhibition, Bottom=minimum value of y attained by curve, Top=maximum value of y attained by curve and Slope=steepness of curve at IC50. % Inh=[(median Max−x/median Max−median Min)]·100 IC50: concentration of compound that reduces a given response (ligand binding, enzyme response) by 50%. IC50 relative: concentration giving half the compound's maximum response.

[2] = molecular target: T2, PI3K-α (PIK3CA) wild-type (WT), p110α/p85α complex (Homo sapiens, UniProt P42336); experiment: PI3K-alpha kinase (PIK3CA) biochemical activity, ADP-Glo, wild-type
T2 construct: Recombinant, catalytically active human full length PIK3KA Wild-type and H1047R mutant; 6×His (N); purchased EMD Millipore Sigma 14-602M
Text: as §1, §2

[3] = PIP2diC8 lipid substrate (footnote 1)

T1 sequence (P42336 whole entry H1047R): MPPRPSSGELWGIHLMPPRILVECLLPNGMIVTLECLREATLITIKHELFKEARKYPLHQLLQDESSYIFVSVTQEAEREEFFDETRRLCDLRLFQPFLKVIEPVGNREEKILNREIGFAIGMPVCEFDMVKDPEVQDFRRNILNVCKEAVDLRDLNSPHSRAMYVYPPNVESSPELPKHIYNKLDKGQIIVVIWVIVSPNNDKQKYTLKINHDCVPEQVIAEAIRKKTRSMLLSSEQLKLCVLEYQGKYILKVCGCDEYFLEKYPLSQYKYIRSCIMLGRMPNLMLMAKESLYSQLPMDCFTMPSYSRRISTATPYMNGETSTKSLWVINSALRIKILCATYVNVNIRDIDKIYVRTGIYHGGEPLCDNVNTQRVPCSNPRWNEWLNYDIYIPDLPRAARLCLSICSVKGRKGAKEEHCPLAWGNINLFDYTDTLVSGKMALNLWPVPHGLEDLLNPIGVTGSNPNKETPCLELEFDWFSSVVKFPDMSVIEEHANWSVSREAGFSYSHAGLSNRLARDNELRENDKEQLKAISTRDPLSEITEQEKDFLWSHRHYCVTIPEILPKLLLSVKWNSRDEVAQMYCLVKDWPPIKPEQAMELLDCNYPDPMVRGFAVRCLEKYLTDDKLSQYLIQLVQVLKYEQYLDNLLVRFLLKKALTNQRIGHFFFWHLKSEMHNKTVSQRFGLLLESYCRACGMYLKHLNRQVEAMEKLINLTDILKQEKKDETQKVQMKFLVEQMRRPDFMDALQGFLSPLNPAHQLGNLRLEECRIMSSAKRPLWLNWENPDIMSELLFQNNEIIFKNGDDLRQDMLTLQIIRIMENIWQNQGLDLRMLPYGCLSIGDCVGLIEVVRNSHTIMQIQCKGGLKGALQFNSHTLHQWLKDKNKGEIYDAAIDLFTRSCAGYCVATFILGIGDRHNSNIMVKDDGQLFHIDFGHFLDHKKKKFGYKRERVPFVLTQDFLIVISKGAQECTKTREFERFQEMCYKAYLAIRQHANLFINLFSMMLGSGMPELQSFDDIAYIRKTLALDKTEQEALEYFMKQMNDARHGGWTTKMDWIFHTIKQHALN
T1 sequence (P27986 whole entry partner): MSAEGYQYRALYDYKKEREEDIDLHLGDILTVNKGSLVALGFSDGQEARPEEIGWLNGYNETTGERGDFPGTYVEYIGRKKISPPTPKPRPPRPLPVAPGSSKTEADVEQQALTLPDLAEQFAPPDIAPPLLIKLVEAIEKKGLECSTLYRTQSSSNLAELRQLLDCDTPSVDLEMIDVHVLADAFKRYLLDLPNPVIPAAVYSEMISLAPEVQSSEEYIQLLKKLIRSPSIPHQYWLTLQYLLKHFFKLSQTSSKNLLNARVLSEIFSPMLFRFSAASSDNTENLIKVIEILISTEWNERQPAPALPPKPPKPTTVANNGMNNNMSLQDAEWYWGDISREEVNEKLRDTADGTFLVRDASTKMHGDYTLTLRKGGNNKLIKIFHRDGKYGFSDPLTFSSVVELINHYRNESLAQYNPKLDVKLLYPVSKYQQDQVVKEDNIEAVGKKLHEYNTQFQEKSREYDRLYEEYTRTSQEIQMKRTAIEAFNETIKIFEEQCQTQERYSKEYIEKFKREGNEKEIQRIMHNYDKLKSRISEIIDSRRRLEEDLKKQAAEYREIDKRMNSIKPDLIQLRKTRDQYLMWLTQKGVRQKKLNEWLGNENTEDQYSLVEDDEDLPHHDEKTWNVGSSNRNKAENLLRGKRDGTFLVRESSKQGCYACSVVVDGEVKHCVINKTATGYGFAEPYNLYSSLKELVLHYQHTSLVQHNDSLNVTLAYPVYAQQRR

Cc1cc(C(C)Nc2ccccc2C(=O)O)c2oc(-c3ccn4cnnc4c3)cc(=O)c2c1 (single isomer, unassigned) [Example 161, 2-[1-[6-Methyl-4-oxo-2-([1,2,4]triazolo[4,3-a]pyridin-7-yl)chromen-8-yl]ethylamino]benzoic acid]
IC50 ([1]; Soy PI lipid substrate): 500 to 1000 nM
IC50 ([2]; Soy PI lipid substrate): > 10000 nM

Cc1cc(C(C)Nc2ccccc2C(=O)O)c2oc(-c3c[nH]c4ccccc34)cc(=O)c2c1 (single isomer, unassigned) [Example 155, 2-[1-[2-(1H-Indol-3-yl)-6-methyl-4-oxo-chromen-8-yl]ethylamino]benzoic acid]
IC50 ([1]; Soy PI lipid substrate): < 500 nM
IC50 ([2]; Soy PI lipid substrate): 1000 to 5000 nM

Cc1cc(C(C)Nc2ccccc2C(=O)O)c2oc(-c3cn4ccccc4n3)cc(=O)c2c1 (single isomer, unassigned) [Example 66, 2-[1-(2-Imidazo[1,2-a]pyridin-2-yl-6-methyl-4-oxo-chromen-8-yl)ethylamino]benzoic acid]
IC50 ([1]; Soy PI lipid substrate): 1000 to 5000 nM
IC50 ([2]; Soy PI lipid substrate): 5000 to 10000 nM

Cc1cc(C(C)Nc2ccccc2C(=O)O)c2oc(-c3ccc4c(c3)CC(=O)N4C)cc(=O)c2c1 (single isomer, unassigned) [Example 62, 2-[1-[6-Methyl-2-(1-methyl-2-oxo-indolin-5-yl)-4-oxo-chromen-8-yl]ethylamino]benzoic acid]
IC50 ([1]; Soy PI lipid substrate): < 500 nM
IC50 ([2]; Soy PI lipid substrate): 1000 to 5000 nM

Cc1cc(C(C)Nc2ccccc2C(=O)O)c2oc(-c3cccn4nccc34)cc(=O)c2c1 (single isomer, unassigned) [Example 106, 2-[1-(6-Methyl-4-oxo-2-pyrazolo[1,5-a]pyridin-4-yl-chromen-8-yl)ethylamino]benzoic acid]
IC50 ([1]; Soy PI lipid substrate): < 500 nM
IC50 ([2]; Soy PI lipid substrate): < 500 nM

Cc1cc(C(C)Nc2ccccc2C(=O)O)c2oc(-c3ccc4nc(C)cn4n3)cc(=O)c2c1 (single isomer, unassigned) [Example 107, 2-[1-[6-Methyl-2-(2-methylimidazo[1,2-b]pyridazin-6-yl)-4-oxo-chromen-8-yl]ethylamino]benzoic acid]
IC50 ([1]; Soy PI lipid substrate): 500 to 1000 nM
IC50 ([2]; Soy PI lipid substrate): 1000 to 5000 nM

Cc1cc(C(C)Nc2ccccc2C(=O)O)c2oc(-c3ccn4ccnc4c3)cc(=O)c2c1 (single isomer, unassigned) [Example 80, 2-[1-(2-Imidazo[1,2-a]pyridin-7-yl-6-methyl-4-oxo-chromen-8-yl)ethylamino]benzoic acid]
IC50 ([1]; Soy PI lipid substrate): < 500 nM
IC50 ([2]; Soy PI lipid substrate): 1000 to 5000 nM

Cc1cc(C(C)Nc2ccccc2C(=O)O)c2oc(-c3ccc4c(c3)ncn4C)cc(=O)c2c1 (single isomer, unassigned) [Example 166, 2-[1-[6-Methyl-2-(1-methylbenzimidazol-5-yl)-4-oxo-chromen-8-yl]ethylamino]benzoic acid]
IC50 ([1]; Soy PI lipid substrate): < 500 nM
IC50 ([2]; Soy PI lipid substrate): 5000 to 10000 nM

Cc1cc(C(C)Nc2ccccc2C(=O)O)c2oc(-c3ccc4nc(C)cn4n3)c(C)c(=O)c2c1 (single isomer, unassigned) [Example 142, 2-[1-[3,6-Dimethyl-2-(2-methylimidazo[1,2-b]pyridazin-6-yl)-4-oxo-chromen-8-yl]ethylamino]benzoic acid]
IC50 ([1]; Soy PI lipid substrate): < 500 nM
IC50 ([2]; Soy PI lipid substrate): 1000 to 5000 nM

Cc1cc(C(C)Nc2ccccc2C(=O)O)c2oc(-c3ccc4c(cnn4CC(C)(C)O)c3)cc(=O)c2c1 (single isomer, unassigned) [Example 123, 2-[1-[2-[1-(2-Hydroxy-2-methyl-propyl)indazol-5-yl]-6-methyl-4-oxo-chromen-8-yl]ethylamino]benzoic acid]
IC50 ([1]; Soy PI lipid substrate): < 500 nM
IC50 ([2]; Soy PI lipid substrate): 1000 to 5000 nM

Cc1cc(C(C)Nc2ccccc2C(=O)O)c2oc(-c3ccc4[nH]c(C(F)(F)F)cc4c3)cc(=O)c2c1 (centres unmarked) [Example 11, 2-[1-[6-Methyl-4-oxo-2-[2-(trifluoromethyl)-1H-indol-5-yl]chromen-8-yl]ethylamino]benzoic acid]
IC50 [1, 3]: 500 to 1000 nM
IC50 [2, 3]: 500 to 1000 nM

Cc1cc(C(C)Nc2ccccc2C(=O)O)c2oc(-c3cnc4nn(C)cc4c3)cc(=O)c2c1 (single isomer, unassigned) [Example 41, 2-[1-[6-Methyl-2-(2-methylpyrazolo[3,4-b]pyridin-5-yl)-4-oxo-chromen-8-yl]ethylamino]benzoic acid]
IC50 ([1]; Soy PI lipid substrate): 1000 to 5000 nM
IC50 ([2]; Soy PI lipid substrate): 5000 to 10000 nM

Cc1cc(C(C)Nc2ccccc2C(=O)O)c2oc(-c3cc4ccncc4o3)cc(=O)c2c1 (single isomer, unassigned) [Example 39, 2-[1-(2-Furo[2,3-c]pyridin-2-yl-6-methyl-4-oxo-chromen-8-yl)ethylamino]benzoic acid]
IC50 ([1]; Soy PI lipid substrate): < 500 nM
IC50 ([2]; Soy PI lipid substrate): 1000 to 5000 nM

Cc1cc(C(C)Nc2ccccc2C(=O)O)c2oc(-c3ncc4cc(C)[nH]c4n3)cc(=O)c2c1 (single isomer, unassigned) [Example 72, 2-[1-[6-Methyl-2-(6-methyl-7H-pyrrolo[2,3-d]pyrimidin-2-yl)-4-oxo-chromen-8-yl]ethylamino]benzoic acid]
IC50 ([1]; Soy PI lipid substrate): < 500 nM
IC50 ([2]; Soy PI lipid substrate): 500 to 1000 nM

Cc1cc(C(C)Nc2ccccc2C(=O)O)c2oc(-c3cnc4nn(C)cc4c3)cc(=O)c2c1 (single isomer, unassigned) [Example 42, 2-[1-[6-Methyl-2-(2-methylpyrazolo[3,4-b]pyridin-5-yl)-4-oxo-chromen-8-yl]ethylamino]benzoic acid]
IC50 ([1]; Soy PI lipid substrate): < 500 nM
IC50 ([2]; Soy PI lipid substrate): 1000 to 5000 nM

Cc1cc(C(C)Nc2ccccc2C(=O)O)c2oc(-c3ccc4c(c3)OCO4)cc(=O)c2c1 (single isomer, unassigned) [Example 46, 2-[1-[2-(1,3-Benzodioxol-5-yl)-6-methyl-4-oxo-chromen-8-yl]ethylamino]benzoic acid]
IC50 [1, 3]: < 500 nM
IC50 [2, 3]: < 500 nM

Cc1cc(C(C)Nc2ccccc2C(=O)O)c2oc(-c3c[nH]c4ccccc34)c(C)c(=O)c2c1 (single isomer, unassigned) [Example 154, 2-[1-[2-(1H-Indol-3-yl)-3,6-dimethyl-4-oxo-chromen-8-yl]ethylamino]benzoic acid]
IC50 ([1]; Soy PI lipid substrate): < 500 nM
IC50 ([2]; Soy PI lipid substrate): 1000 to 5000 nM

Cc1cc(C(C)Nc2ccc(Cl)nc2C(=O)O)c2oc(-c3ccc4nn(C)cc4c3)cc(=O)c2c1 (single isomer, unassigned) [Example 83, 6-Chloro-3-[1-[6-methyl-2-(2-methylindazol-5-yl)-4-oxo-chromen-8-yl]ethylamino]pyridine-2-carboxylic acid]
IC50 ([1]; Soy PI lipid substrate): < 500 nM
IC50 ([2]; Soy PI lipid substrate): 500 to 1000 nM

Cc1cc(C(C)Nc2ccccc2C(=O)O)c2oc(-c3ccc4nn(C)cc4c3)c(C(F)(F)F)c(=O)c2c1 (single isomer, unassigned) [Example 208, 2-[1-[6-Methyl-2-(2-methylindazol-5-yl)-4-oxo-3-(trifluoromethyl)chromen-8-yl]ethylamino]benzoic acid]
IC50 ([1]; Soy PI lipid substrate): < 500 nM
IC50 ([2]; Soy PI lipid substrate): < 500 nM

Cc1cc(C(C)Nc2ccc(Cl)nc2C(=O)O)c2oc(-c3ccc4nn(C)cc4c3)cc(=O)c2c1 (single isomer, unassigned) [Example 206, 6-Chloro-3-[1-[6-methyl-2-(2-methylindazol-5-yl)-4-oxo-chromen-8-yl]ethylamino]pyridine-2-carboxylic acid]
IC50 ([1]; Soy PI lipid substrate): < 500 nM
IC50 ([2]; Soy PI lipid substrate): < 500 nM

Cc1cc(C(C)Nc2ccccc2C(=O)O)c2oc(-c3cccc4c3OCO4)c(C)c(=O)c2c1 (single isomer, unassigned) [Example 92, 2-[1-[2-(1,3-Benzodioxol-4-yl)-3,6-dimethyl-4-oxo-chromen-8-yl]ethylamino]benzoic acid]
IC50 ([1]; Soy PI lipid substrate): < 500 nM
IC50 ([2]; Soy PI lipid substrate): 1000 to 5000 nM

Cc1cc(C(C)Nc2ccccc2C(=O)O)c2oc(-c3ccc4cc[nH]c4n3)cc(=O)c2c1 (centres unmarked) [Example 14, 2-[1-[6-Methyl-4-oxo-2-(1H-pyrrolo[2,3-b]pyridin-6-yl)chromen-8-yl]ethylamino]benzoic acid]
IC50 ([1]; Soy PI lipid substrate): < 500 nM
IC50 ([2]; Soy PI lipid substrate): 1000 to 5000 nM

— patent publication US11878970B2, “Allosteric chromenone inhibitors of phosphoinositide 3-kinase (PI3K) for the treatment of disease” (Petra Pharma Corporation, priority 2021, dated 2024)
